Activity calls are given as the source filed them.
Tests used:
[1] = inhibitors of SNCA 5'UTR-driven translation, confirmation, luminescence, H4 neuroglioblastoma cells, dose confirmation (AID 2454); assay type: functional, cell-based;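 note: H4 neuroglioblastoma cells carrying an alpha-synuclein 5'UTR luciferase reporter; potency for inhibition of the luciferase signal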
cells [2] = assay type: functional, cell-based
[3] = luciferase reporter signal reduction – luminescence, H4-C neuroglioblastoma cells, dose response (AID 2458); assay type: functional, cell-based;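 note: H4 neuroglioblastoma cells stably carrying a luciferase reporter gene fusion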
[4] = inhibitors of firefly luciferase expression or activity, dose response, H4 neuroglioma cells, luminescence (AID 1990); assay type: functional, cell-based
[5] = Luminescence Cell-Based Dose Response HTS to Identify Inhibitors of 5'UTR Stem-Loop Driven Prion Protein mRNA Translation in H4 Neuroglioblastoma Cells. [Related pubchem assays: 1827 (Project Summary), 1813 (Primary HTS)]; assay type: functional
[6] = inhibitors of SNCA 5'UTR-driven reporter translation, confirmation, H4 neuroglioma cells, luminescence (AID 1988); assay type: functional, cell-based
[7] = cytotoxicity in HEK-293T cells, dose response, cytotoxicity control for TCR NF-kB inhibitor project, luminescence, T-cell screen hits (AID 489026); assay type: functional, cell-based;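 note: cells exposed to compound about 14 hours before the viability readout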
cells [8] = experiment: cells
Vero [9] = experiment: cells; assay type: functional, cell-based; conditions: Chlorocebus sabaeus
[10] = HEp-2 cell cytotoxicity, dose response, cytotoxicity control for RSV inhibitor project, HTS (AID 2410); assay type: functional; conditions: human respiratory syncytial virus
[11] = target: Ras and Rab interactor 1/Tyrosine-protein kinase ABL1 (Homo sapiens, UniProt P00519+Q13671); assay type: functional;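 note: biochemical TR-FRET dose-response test measuring inhibition of binding between Rin1 and Abl proteins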
Ras and Rab interactor 1/Tyrosine-protein kinase ABL1, sequence (P00519 whole entry): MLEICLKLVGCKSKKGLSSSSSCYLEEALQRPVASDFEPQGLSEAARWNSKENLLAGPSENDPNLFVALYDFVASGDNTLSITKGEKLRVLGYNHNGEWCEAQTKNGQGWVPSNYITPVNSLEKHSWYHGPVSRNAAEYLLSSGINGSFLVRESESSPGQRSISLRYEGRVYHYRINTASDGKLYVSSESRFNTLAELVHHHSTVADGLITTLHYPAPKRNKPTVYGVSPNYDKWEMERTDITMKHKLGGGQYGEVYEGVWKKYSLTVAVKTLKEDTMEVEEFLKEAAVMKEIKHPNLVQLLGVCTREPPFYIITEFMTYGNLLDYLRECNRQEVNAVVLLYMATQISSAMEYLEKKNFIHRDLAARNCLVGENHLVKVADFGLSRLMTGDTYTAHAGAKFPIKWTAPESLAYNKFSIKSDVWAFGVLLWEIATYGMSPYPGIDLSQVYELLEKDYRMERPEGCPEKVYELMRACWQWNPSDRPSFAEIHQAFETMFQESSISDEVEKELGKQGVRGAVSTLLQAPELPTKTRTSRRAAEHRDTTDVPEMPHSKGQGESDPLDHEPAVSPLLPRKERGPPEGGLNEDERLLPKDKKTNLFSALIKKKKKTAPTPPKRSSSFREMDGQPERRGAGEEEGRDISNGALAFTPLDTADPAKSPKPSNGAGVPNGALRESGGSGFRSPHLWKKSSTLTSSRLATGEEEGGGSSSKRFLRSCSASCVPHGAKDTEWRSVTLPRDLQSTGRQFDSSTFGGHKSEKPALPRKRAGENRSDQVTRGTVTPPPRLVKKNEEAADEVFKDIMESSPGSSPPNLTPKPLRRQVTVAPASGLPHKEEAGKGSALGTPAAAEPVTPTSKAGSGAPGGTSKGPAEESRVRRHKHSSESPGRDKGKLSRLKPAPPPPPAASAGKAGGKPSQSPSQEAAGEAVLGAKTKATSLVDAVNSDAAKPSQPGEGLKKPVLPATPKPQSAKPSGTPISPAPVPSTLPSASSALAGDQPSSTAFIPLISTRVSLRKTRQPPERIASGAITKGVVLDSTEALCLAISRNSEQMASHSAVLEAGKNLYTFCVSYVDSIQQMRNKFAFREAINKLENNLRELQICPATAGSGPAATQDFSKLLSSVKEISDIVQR
Ras and Rab interactor 1/Tyrosine-protein kinase ABL1, sequence (Q13671 whole entry): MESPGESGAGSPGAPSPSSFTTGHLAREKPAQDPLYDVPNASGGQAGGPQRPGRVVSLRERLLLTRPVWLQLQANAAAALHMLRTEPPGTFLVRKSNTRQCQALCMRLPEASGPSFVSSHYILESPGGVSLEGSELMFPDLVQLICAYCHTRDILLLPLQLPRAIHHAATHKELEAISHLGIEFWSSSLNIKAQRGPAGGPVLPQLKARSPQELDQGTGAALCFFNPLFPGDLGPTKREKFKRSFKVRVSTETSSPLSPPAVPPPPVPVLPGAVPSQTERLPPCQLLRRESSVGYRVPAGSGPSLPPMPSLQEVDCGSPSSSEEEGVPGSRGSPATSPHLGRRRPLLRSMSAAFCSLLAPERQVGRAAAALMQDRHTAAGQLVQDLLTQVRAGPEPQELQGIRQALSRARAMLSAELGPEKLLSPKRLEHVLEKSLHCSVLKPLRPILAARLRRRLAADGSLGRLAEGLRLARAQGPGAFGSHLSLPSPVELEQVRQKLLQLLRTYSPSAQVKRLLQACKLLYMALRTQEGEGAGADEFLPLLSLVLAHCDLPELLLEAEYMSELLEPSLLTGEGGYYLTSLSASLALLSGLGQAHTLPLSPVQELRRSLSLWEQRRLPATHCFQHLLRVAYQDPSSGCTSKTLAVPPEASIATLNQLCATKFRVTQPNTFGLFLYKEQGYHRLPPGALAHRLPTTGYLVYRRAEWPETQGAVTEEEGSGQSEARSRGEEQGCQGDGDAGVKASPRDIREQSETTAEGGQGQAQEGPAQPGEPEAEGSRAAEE

[12] = THP-1 cell cytotoxicity, dose response, cytotoxicity control for Vif-APOBEC3G degradation inhibitor project, THP-1 cells (AID 1117359); assay type: functional; conditions: Human immunodeficiency virus 1, THP-1
[13] = test system: Streptococcus sp. 'group A'; experiment: growth inhibition of control SK(-) GAS strain, dose response, counter-screen for streptokinase expression inhibitor project, luminescence, kanamycin, BacTiterGlo, confirmation (AID 1900); assay type: functional, organism-based
Streptococcus = experiment: Group A Streptococcus viability loss, dose response, counter-screen for streptokinase expression inhibitor project, luminescence, BacTiterGlo (AID 1915); assay type: functional, organism-based;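 note: potency for reduction of bacterial viability or growth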
[14] = target: T1, Short transient receptor potential channel 4 (Mus musculus, UniProt Q9QUQ5); experiment: mouse TRPC4 channel activators, dose response, cell-based, HEK293 TRPC4/mu-opioid, Fluo-4 calcium (AID 434937); assay type: functional
T1 sequence (Q9QUQ5 whole entry): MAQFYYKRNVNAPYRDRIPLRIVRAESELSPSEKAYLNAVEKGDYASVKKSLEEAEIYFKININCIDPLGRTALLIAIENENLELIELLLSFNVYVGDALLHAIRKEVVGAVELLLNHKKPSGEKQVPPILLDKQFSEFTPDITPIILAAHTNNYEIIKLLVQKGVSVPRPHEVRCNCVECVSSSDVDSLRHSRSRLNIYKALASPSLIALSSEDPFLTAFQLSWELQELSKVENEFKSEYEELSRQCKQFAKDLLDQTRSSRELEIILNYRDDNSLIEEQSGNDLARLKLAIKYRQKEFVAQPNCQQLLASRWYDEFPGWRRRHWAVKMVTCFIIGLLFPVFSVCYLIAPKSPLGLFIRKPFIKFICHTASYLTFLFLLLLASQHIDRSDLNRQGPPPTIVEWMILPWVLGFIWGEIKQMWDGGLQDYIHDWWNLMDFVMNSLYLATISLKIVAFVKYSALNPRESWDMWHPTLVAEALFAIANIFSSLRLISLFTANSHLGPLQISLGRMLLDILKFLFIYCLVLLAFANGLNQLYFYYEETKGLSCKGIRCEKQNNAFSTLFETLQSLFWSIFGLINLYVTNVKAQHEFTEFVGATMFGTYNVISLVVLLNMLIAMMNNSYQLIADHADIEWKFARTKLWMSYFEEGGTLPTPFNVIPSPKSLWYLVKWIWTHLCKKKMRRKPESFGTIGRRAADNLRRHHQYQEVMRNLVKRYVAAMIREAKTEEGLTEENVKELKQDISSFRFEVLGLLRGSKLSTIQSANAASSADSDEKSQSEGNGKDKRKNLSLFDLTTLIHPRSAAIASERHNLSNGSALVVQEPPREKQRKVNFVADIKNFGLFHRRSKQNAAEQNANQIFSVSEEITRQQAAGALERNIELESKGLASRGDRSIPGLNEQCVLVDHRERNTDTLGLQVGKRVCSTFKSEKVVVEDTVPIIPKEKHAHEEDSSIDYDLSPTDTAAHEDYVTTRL

Beta-galactosidase = Beta-galactosidase (Escherichia coli, UniProt Q8VNN2); experiment: beta-galactosidase enzyme inhibitors and activators, dose response, artefact control for CCR6 antagonist project, biochemical, E. coli enzyme, set 3 (AID 504712); assay type: functional
Beta-galactosidase, sequence (Q8VNN2 whole entry): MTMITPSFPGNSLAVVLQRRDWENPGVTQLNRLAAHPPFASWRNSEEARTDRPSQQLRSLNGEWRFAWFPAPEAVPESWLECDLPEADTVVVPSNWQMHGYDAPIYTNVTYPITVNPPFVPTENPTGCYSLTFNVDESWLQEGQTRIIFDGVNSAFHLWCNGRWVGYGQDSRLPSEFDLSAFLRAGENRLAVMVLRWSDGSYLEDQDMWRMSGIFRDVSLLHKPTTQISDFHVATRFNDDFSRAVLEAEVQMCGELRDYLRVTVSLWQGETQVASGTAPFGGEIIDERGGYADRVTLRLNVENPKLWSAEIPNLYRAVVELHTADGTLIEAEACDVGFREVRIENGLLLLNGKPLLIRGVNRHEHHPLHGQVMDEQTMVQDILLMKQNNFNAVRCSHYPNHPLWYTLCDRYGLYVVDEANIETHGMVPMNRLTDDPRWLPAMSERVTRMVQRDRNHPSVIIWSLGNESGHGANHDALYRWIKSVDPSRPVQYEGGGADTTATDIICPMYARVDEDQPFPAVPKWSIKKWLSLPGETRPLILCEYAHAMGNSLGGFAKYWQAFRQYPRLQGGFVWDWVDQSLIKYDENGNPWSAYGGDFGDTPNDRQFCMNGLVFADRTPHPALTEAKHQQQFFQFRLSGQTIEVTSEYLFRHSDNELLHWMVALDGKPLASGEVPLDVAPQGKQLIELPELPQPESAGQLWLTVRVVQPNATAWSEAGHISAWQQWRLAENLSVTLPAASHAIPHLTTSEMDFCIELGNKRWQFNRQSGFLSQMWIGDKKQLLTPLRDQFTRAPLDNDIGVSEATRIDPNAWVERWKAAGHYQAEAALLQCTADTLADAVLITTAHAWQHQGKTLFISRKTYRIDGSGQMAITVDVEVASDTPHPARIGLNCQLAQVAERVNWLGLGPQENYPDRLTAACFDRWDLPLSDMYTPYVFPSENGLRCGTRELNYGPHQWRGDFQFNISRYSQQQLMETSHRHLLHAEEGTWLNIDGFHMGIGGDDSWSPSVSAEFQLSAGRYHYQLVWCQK

Vero [15] = experiment: cells; assay type: functional; conditions: Chlorocebus sabaeus
[16] = target: Disintegrin and metalloproteinase domain-containing protein 17 (Homo sapiens, UniProt P78536); experiment: exosite inhibitors of ADAM17, dose response, biochemical (AID 743260)
Disintegrin and metalloproteinase domain-containing protein 17, sequence (P78536 whole entry, the tested form may be a part): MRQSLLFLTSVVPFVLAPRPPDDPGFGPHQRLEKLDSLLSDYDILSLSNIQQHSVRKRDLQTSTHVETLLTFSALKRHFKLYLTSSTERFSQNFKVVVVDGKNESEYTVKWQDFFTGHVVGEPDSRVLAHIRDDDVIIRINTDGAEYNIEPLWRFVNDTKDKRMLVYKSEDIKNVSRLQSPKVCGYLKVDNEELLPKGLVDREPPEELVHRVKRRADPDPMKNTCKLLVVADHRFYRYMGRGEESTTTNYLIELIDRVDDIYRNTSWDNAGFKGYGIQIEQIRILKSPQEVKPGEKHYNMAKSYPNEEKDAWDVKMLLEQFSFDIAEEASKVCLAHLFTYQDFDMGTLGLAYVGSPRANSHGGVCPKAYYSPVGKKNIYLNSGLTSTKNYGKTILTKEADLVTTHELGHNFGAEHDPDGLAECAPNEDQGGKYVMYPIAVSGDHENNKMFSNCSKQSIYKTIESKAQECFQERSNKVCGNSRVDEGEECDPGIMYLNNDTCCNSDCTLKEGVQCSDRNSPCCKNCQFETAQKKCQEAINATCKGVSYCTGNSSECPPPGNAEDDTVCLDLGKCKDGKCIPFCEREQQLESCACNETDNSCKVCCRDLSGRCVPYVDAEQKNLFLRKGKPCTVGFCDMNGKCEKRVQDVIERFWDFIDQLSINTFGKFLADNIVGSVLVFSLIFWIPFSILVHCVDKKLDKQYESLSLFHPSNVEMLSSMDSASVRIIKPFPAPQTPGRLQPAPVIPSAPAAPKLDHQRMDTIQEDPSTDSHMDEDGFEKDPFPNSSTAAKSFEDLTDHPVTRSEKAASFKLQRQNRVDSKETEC

[17] = ADAM10 protease inhibitors, dose response, selectivity assay for ADAM17 exosite inhibitor project, biochemical, FRET peptide substrate, recombinant human ADAM10 (AID 743259);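 note: ADAM10 enzyme cleaving a FRET peptide substrate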
Beta Lactamase = Beta Lactamase (Pseudomonas aeruginosa, UniProt Q932Y6); experiment: beta-lactamase reporter inhibitor potency, dose response, artefact control for TLR9-MyD88 binding inhibitor project, BLA reporter cells, FRET fluorescence (AID 588341); assay type: cell-based;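 note: cell based assay in CHO-K1 cells stably expressing beta-lactamase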
Beta Lactamase, sequence (Q932Y6 whole entry, the tested form may be a part): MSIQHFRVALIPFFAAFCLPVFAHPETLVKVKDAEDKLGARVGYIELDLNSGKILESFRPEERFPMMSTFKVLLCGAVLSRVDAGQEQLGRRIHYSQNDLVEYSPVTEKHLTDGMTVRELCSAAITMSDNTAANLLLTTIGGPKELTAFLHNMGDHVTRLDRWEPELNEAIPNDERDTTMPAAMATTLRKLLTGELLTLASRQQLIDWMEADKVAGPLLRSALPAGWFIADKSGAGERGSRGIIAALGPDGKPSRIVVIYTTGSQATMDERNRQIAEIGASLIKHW

CHO = experiment: cytotoxicity in TLR9-MyD88 CHO cells, dose response, cytotoxicity control for TLR9-MyD88 binding inhibitor project, cell-based, luminescence (AID 588339); assay type: functional, hamster; conditions: Cricetulus griseus;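 note: CHO cells stably coexpressing TLR9 and MyD88 fusions from primary screen; compound exposure lasted 48 hours before viability readout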
[18] = Shn3 3'UTR reporter inhibitors, dose response, cell-based, Clone20 osteoblasts, firefly luciferase, cherry-picked (AID 624132); assay type: functional;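 note: firefly luciferase luminescence from reporter carrying the Shn3 3'UTR in osteoblasts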
Paired box protein Pax-8 = Paired box protein Pax-8 (Homo sapiens, UniProt Q06710); experiment: inhibitors of PAX8-driven TPO luciferase reporter, dose response, RMG-I cells, cherry-pick (AID 687027); assay type: functional, cell-based;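 note: luciferase reporter driven by Pax8 target thyroperoxidase promoter measured by SteadyGlo luminescence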
Paired box protein Pax-8, sequence (Q06710 whole entry): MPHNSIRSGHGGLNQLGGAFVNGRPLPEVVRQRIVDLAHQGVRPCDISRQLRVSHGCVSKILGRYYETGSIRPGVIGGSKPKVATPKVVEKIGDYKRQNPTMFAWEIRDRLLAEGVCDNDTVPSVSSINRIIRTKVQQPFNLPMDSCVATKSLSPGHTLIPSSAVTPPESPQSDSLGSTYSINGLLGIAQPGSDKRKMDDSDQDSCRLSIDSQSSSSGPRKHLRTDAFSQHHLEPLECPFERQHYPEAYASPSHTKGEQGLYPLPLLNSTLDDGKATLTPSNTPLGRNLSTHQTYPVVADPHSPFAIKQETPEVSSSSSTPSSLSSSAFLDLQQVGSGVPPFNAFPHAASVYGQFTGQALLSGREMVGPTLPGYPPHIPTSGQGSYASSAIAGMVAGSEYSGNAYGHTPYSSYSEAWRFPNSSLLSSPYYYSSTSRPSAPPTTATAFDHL

[19] = control 3'UTR Renilla luciferase suppression, dose response, counter-screen for Shn3 inhibitor project, cell-based, Clone20-Shn3RL, cherry-picked (AID 624133); assay type: functional
[20] = HepG2 cell cytotoxicity, dose response, cytotoxicity control for Shn3 inhibitor project, CellTiter-Glo, cherry-picked (AID 624134); assay type: functional, cell-based
[21] = growth suppression of PTEN-null colon cells, dose response, cell-based, HCT116 PTEN knockout (AID 1047); assay type: functional;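 note: HCT116 colon tumor cells with PTEN knocked out; cells exposed to compound for 60 hours before readout; potency for loss of cell viability measured by luminescence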
[22] = growth suppression of beta-catenin-knockout colon cells, dose response, cell-based, HCT116, human colon tumor (AID 1045); assay type: functional;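 note: HCT116 colon tumor cells with beta catenin knocked out; cells exposed to compound for 60 hours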
[23] = NIH-3T3 fibroblast cytotoxicity, dose response, cytotoxicity control, cell-based, fluorescence, Alamar Blue, secondary assay (AID 2327); assay type: functional;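 note: NIH-3T3 mouse fibroblasts cultured with fluconazole at 8 µg/mL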
[24] = C. albicans growth with fluconazole, confirmation, fluorescence, retest (AID 2467); assay type: functional, cell-based
[25] = Luminescence-based cell-based high throughput dose response assay to identify activators of the DAF-12 from the parasite S. stercoralis (ssDAF-12).; assay type: functional
[26] = cytotoxicity in OVCAR8 ovarian cancer cells, dose response, PAX8 project, cell-based, plate reader, dry powder samples (AID 743197); assay type: functional; conditions: OVCAR-8
[27] = NIH:OVCAR-3 ovarian cancer cell cytotoxicity, dose response, PAX8 inhibitor project, plate reader, dry powder samples (AID 743044); assay type: functional, cell-based
[28] = P. falciparum Dd2 growth inhibitors, dose response, SYBR Green, cherry-picked samples (AID 1159567); assay type: functional, cell-based
H4 = experiment: Luminescence Cell-Based Dose Response HTS to Identify Activators of 5'UTR Stem-Loop Driven Prion Protein mRNA Translation in H4 Neuroglioblastoma Cells. [Related pubchem assays: 1829 (Project Summary), 1814 (Primary HTS)]; assay type: functional; conditions: Homo sapiens
[29] = Luminescence Cell-Based Dose Confirmation HTS to Identify Activators of 5'UTR Stem-Loop Driven Alpha-Synuclein mRNA Translation in H4 Neuroglioblastoma Cells. [Related pubchem assays: 1829 (Project Summary), 1814 (Primary HTS)]; assay type: functional
[30] = Luminescence Cell-Based Dose Response HTS to Identify Activators of Luciferase Translation or Activity in H4 […] Cells. [Related pubchem assays: 1829 (Project Summary), 1814 (Primary HTS)]; assay type: functional

## Cc1cc(NC(=O)CSc2nc3ccccc3c(=O)n2C2CCCC2)no1
[1]
  EC50: 1.89 µM (inconclusive)
Cells [2]
  EC50: > 12 µM (not active)
[3]
  EC50: 1.5 µM (active)
[4]
  EC50: 4.73 µM (inconclusive)
[5]
  EC50: < 0.1 µM (active)
[6]
  EC50: < 0.1 µM (active)
[7]
  IC50: > 80 µM (inactive)

## Cc1cc(NC(=O)COC(=O)c2c(Cl)cccc2Cl)no1
Cells [8]
  IC50: 21.8 µM (active)
Vero [9]
  IC50: > 25 µM (active)
[10]
  CC50: > 50 µM (active)

## COc1ccc(CC(=O)Oc2ccc(C)cc2Br)cc1OC
[11]
  IC50: 6.87 µM (active)

## O=C(CCCN1C(=O)/C(=C\c2ccco2)SC1=S)Nc1cccc2ccccc12
[12]
  CC50: 29 µM (active)

## CCOC(=O)c1c(NC(=O)CCN2CCOCC2)sc(C)c1-c1ccccc1
[12]
  CC50: > 40 µM (active)

## O=C(Nc1ccncc1)C1CCN(S(=O)(=O)c2c(Cl)cccc2Cl)CC1
[12]
  CC50: > 40 µM (active)

## Cc1ccc(C(=O)NNC(=S)NC(=O)c2ccccc2)cc1
[13]
  EC50: 1.47 µM (active)
Streptococcus
  EC50: 4.44 µM (active)
[14]
  EC50: 2.66 µM (active)
Beta-galactosidase
  IC50: > 66.6 µM (inactive)
Vero [15]
  CC50: 24.8 µM (active)
Vero [9]
  IC50: 12 µM (active)

## CC12CCC(=O)N1C(C(=O)N1CCN(S(=O)(=O)c3ccc(Br)cc3Cl)CC1)CS2 (stereo not given)
[11]
  IC50: 17 µM (inactive)

## O=C(OCc1cnc(Cl)s1)c1cccc(Cl)c1Cl
[16]
  IC50: > 69.6 µM (inactive)
[17]
  IC50: > 69.6 µM (inactive)

## Cn1c(-c2c(N)n(-c3ccccc3)c3nc4ccccc4nc23)nc2ccccc21
Beta Lactamase
  IC50: 3.85 µM (active)
CHO
  IC50: > 49.7 µM (inactive)

## COc1cc(/C=C(\C#N)c2ccccn2)ccc1OCc1ccccc1
[16]
  IC50: > 69.5 µM (inactive)
[17]
  IC50: > 69.5 µM (inactive)

## Cc1cc(C2=NN=C(NC3CC3)SC2)c(C)n1-c1ccccc1F
[1]
  EC50: 0.004 µM (active)
[18]
  AC50: < 0.26 µM (active)
Paired box protein Pax-8
  AC50: < 0.26 µM (active)
[19]
  AC50: 6.07 µM (active)
Cells [2]
  EC50: 0.016 µM (active)
[20]
  AC50: 28 µM (active)
[3]
  EC50: 0.005 µM (active)
[21]
  EC50: 17.1 µM (active)
[22]
  EC50: 16.7 µM (active)
[4]
  EC50: < 0.1 µM (active)
[5]
  EC50: < 0.1 µM (active)
[6]
  EC50: < 0.1 µM (active)

## CCCCN(CCCC)CCCN1CC(=O)N2[C@@H](Cc3c([nH]c4ccccc34)C2(C)C)C1=O
[12]
  CC50: > 40 µM (active)

## O=[N+]([O-])CC(c1ccccc1)P(=O)(c1ccccc1)c1ccccc1 (stereo not given)
[23]
  EC50: > 160 µM (inactive)
[16]
  IC50: 10.9 µM (inactive)
[17]
  IC50: > 69.5 µM (inactive)
[24]
  EC50: 5.58 µM (active)

## Nc1ccccc1C=C1Cc2ccccc2C1=O
[25]
  IC50: > 67.6 µM (inactive)

## OC(c1ccc(F)c(F)c1)c1nc(-c2cccc(C(F)(F)F)c2)cs1 (stereo not given)
[16]
  IC50: 50.5 µM (inactive)
[17]
  IC50: 12.1 µM (inactive)

## CC(=O)c1cccc(-c2ccnc3c2CC(C(=O)NCc2ccc(N4CCN(C)CC4)cc2)O3)c1 (stereo not given)
[11]
  IC50: 29.9 µM (inactive)

## COc1cc(/C=N/NC(=O)CSc2ccccn2)ccc1OC(C)C
[11]
  IC50: 19.1 µM (inactive)

## CCOc1ccc2[nH]c(C(=O)N/N=C/c3ccc(OC)cc3)cc2c1
[1]
  EC50: 3.25 µM (active)
Cells [2]
  EC50: 1.4 µM (active)
[3]
  EC50: 1.12 µM (active)
[4]
  EC50: 7.08 µM (active)
[5]
  EC50: 0.273 µM (active)
[6]
  EC50: < 0.1 µM (active)

## Oc1nc2ccccc2n1C1CCN(C(c2nnnn2C2CCCC2)C2CC2)CC1 (stereo not given)
[11]
  IC50: 17.3 µM (inactive)

## CC(C)CC#Cc1ccc2c(c1)O[C@H](CN(C)S(=O)(=O)c1ccc(F)cc1)[C@@H](C)CN([C@@H](C)CO)S2(=O)=O
[26]
  AC50: > 70 µM (inactive)
Paired box protein Pax-8
  AC50: 10.3 µM (active)
[27]
  AC50: 49.7 µM (active)
[28]
  AC50: 5.25 µM (active)

## CCOc1ccc(-n2c(SCC(=O)Nc3cc(C)c(NC(=O)c4ccccc4)cc3OC)nnc2-c2cccs2)cc1
[16]
  IC50: > 69.5 µM (inactive)
[17]
  IC50: > 69.5 µM (inactive)

## Nc1[nH]c(C(=O)c2ccc(Br)cc2)c(-c2ccccn2)c1C(=O)NCCc1c[nH]c2ccccc12
[16]
  IC50: > 69.5 µM (inactive)
[17]
  IC50: 16.4 µM (inactive)

## C[C@@H]1CN([C@H](C)CO)C(=O)c2cc(NC(=O)Cc3ccccc3)ccc2O[C@@H](C)CCCCO[C@H]1CN(C)Cc1ccc(Cl)c(Cl)c1
[26]
  AC50: > 70 µM (inactive)
[27]
  AC50: 28.2 µM (active)

## Cc1cc(C)c([N+](=O)[O-])cc1-c1ccc(/C=N/c2c(-c3ccco3)nc3ccccn23)o1
H4
  EC50: 14.8 µM (active)
[12]
  CC50: 31.6 µM (active)
[29]
  EC50: 8.26 µM (active)
[30]
  EC50: 12 µM (active)
